Test results taken from article PMC4840262 (Mutagenesis, 2015).
Read-outs that look alike come from different tables or passages of the source. Marks after values point to notes of the source that are not given here.

How the values were obtained:
mice [1] = conditions: formulated diet, doses equivalent to a maximum of 30mg/kg in mice; cited from earlier work
in vitro = conditions: male, human, Cytotoxicity (%)
Drosophila melanogaster = conditions: in vivo; cited from earlier work
[2] = format: in vivo; conditions: rat, plasma, po
human lymphocytes [3] = system: human lymphocytes
Bacillus subtilis = conditions: cited from earlier work
CHO-K1 cells [4] = conditions: cited from earlier work
rats = conditions: formulated diet, doses equivalent to a maximum of 20mg/kg in rats; cited from earlier work
[5] = system: C3H/10T1/2 Cl 8 mouse embryo fibroblasts; conditions: cited from earlier work
CHL cells = conditions: cited from earlier work
CHO-K1 cells [6] = conditions: Chinese hamster
mice [7] = conditions: mouse, in vivo; cited from earlier work
human lymphocytes [8] = system: human lymphocytes; remark: listed apart in the source
Saccharomyces cerevisiae = conditions: cited from earlier work
bacteria (Ames test) = conditions: cited from earlier work
[9] = system: bone marrow polychromatic erythrocytes (PCE); conditions: female, rat, in vivo; for % Micronucleated PCE / % PCE: Han Wistar [Crl:WI(Han)], po
[10] = female, Han Wistar [Cr1 WI(Han)], rat, in vivo, po, 400 mg/kg
mouse bone marrow = conditions: in vivo, po; cited from earlier work
[11] = Wistar rat, oral dose of 40mg/kg, microsuspension, after 4h; cited from earlier work
[12] = humans, 100mg once or twice a day for 3 days, original commercial oral GI formulation; cited from earlier work

SMILES: COC(=O)Nc1nc2cc(C(=O)c3ccc(F)cc3)ccc2[nH]1 [Flubendazole, flubendazole]
- Carcinogenicity (in words) (mice [1]): Neither showed evidence of carcinogenicity
- cytotoxicity (in vitro; 0.050 µg/ml): 0%
- cytotoxicity (in vitro; 0.075 µg/ml): 0%
- cytotoxicity (in vitro; 0.100 µg/ml): 0%
- cytotoxicity (in vitro; 0.250 µg/ml): 0%
- cytotoxicity (in vitro; 0.5 µg/ml): 4%
- cytotoxicity (in vitro; 0.500 µg/ml): 0%
- cytotoxicity (in vitro; 1.0 µg/ml): 0%
- cytotoxicity (in vitro; 1.00 µg/ml): 16%
- cytotoxicity (in vitro; 2.0 µg/ml): 0%
- cytotoxicity (in vitro; 3.0 µg/ml): 0%
- cytotoxicity (in vitro; 6.0 µg/ml): 0%
- cytotoxicity (in vitro; 6.5 µg/ml): 43%
- cytotoxicity (in vitro; 7.5 µg/ml): 8%
- cytotoxicity (in vitro; 9.0 µg/ml): 26%
- cytotoxicity (in vitro; 10.0 µg/ml): 0%
- cytotoxicity (in vitro; 12.0 µg/ml): 0%
- cytotoxicity (in vitro; 14.0 µg/ml): 14%
- cytotoxicity (in vitro; 16.0 µg/ml): 4%
- cytotoxicity (in vitro; 19.0 µg/ml): 7%
- cytotoxicity (in vitro; 25.0 µg/ml): 12%
- Mutation test result (in words) (Drosophila melanogaster): negative
- AUC(0-t) ([2]; 65 mg/kg): 15100 ng·h/mL
- Cmax ([2]; 65 mg/kg): 910 ng/mL
- AUC(0-t) ([2]; 130 mg/kg): 16500 ng·h/mL
- Cmax ([2]; 130 mg/kg): 900 ng/mL
- AUC(0-t) ([2]; 402 mg/kg): 24900 ng·h/mL
- Cmax ([2]; 402 mg/kg): 1330 ng/mL
- Mean MNBN cell frequency (%) (human lymphocytes [3]; 0.050 µg/ml): 0.10%
- Mean MNBN cell frequency (%) (human lymphocytes [3]; 0.075 µg/ml): 0.30%
- Mean MNBN cell frequency (%) (human lymphocytes [3]; 0.100 µg/ml): 0.55%
- Mean MNBN cell frequency (%) (human lymphocytes [3]; 0.250 µg/ml): 1.15* %
- Mean MNBN cell frequency (%) (human lymphocytes [3]; 0.5 µg/ml): 1.75* %
- Mean MNBN cell frequency (%) (human lymphocytes [3]; 0.500 µg/ml): 3.15* %
- Mean MNBN cell frequency (%) (human lymphocytes [3]; 1.0 µg/ml): 3.38* %
- Mean MNBN cell frequency (%) (human lymphocytes [3]; 1.00 µg/ml): 4.25* %
- Mean MNBN cell frequency (%) (human lymphocytes [3]; 2.0 µg/ml): 0.05%
- Mean MNBN cell frequency (%) (human lymphocytes [3]; 3.0 µg/ml): 5.15* %
- Mean MNBN cell frequency (%) (human lymphocytes [3]; 6.0 µg/ml): 0.85* %
- Mean MNBN cell frequency (%) (human lymphocytes [3]; 6.5 µg/ml): 10.10* %
- Fold increases in MN over concurrent vehicle control (human lymphocytes [3]; 7.5 μg/ml): 7.2
- Mean MNBN cell frequency (%) (human lymphocytes [3]; 7.5 μg/ml): 1.65* %
- Fold increases in MN over concurrent vehicle control (human lymphocytes [3]; 9.0 μg/ml): 28.5
- Mean MNBN cell frequency (%) (human lymphocytes [3]; 9.0 μg/ml): 6.55* %
- Mean MNBN cell frequency (%) (human lymphocytes [3]; 10.0 µg/ml): 0.25%
- Mean MNBN cell frequency (%) (human lymphocytes [3]; 12.0 µg/ml): 0.20%
- Mean MNBN cell frequency (%) (human lymphocytes [3]; 14.0 µg/ml): 0.65* %
- Fold increases in MN over concurrent vehicle control (human lymphocytes [3]; 16 μg/ml): 3.6
- Mean MNBN cell frequency (%) (human lymphocytes [3]; 16.0 µg/ml): 0.90* %
- Mean MNBN cell frequency (%) (human lymphocytes [3]; 19.0 µg/ml): 0.55* %
- Fold increases in MN over concurrent vehicle control (human lymphocytes [3]; 25 μg/ml): 11.5
- Mean MNBN cell frequency (%) (human lymphocytes [3]; 25.0 µg/ml): 2.88* %
- Lowest dose where a statistically significant increase in micronuclei was observed (human lymphocytes [3]; male, human): 0.25 µg/mL
- Lowest non-significant doses (micronuclei) (human lymphocytes [3]; male, human): 0.1 µg per ml
- Lowest tested concentration, statistically significant increases in micronuclei evident (human lymphocytes [3]; male, human): 0.5 µg/mL
- Induction of DNA repair (in words) (Bacillus subtilis): negative
- Td (threshold dose) (CHO-K1 cells [4]): 0.028 µg/mL
- Td–L–CI (lower confidence Td) (CHO-K1 cells [4]): 0.025 µg/mL
- Carcinogenicity (in words) (rats): Neither showed evidence of carcinogenicity
- Morphological transformation (in words) [5]: morphological transformation
- Polyploidy (in words) (CHL cells): induce polyploidy
- BMD10 (CHO-K1 cells [6]): 0.019 µg/mL
- BMDL10 (CHO-K1 cells [6]): 0.013 µg/mL
- Induction of dominant lethal mutations (in words) (mice [7]): negative
- Mode of action of micronucleus induction (in words) (human lymphocytes [8]): acts as an aneugen
- % micronuclei with a centromere (human lymphocytes [8]; 7.5 μg/ml): 80%
- % micronuclei without a centromere (human lymphocytes [8]; 7.5 μg/ml): 20%
- % micronuclei with a centromere (human lymphocytes [8]; 9.0 μg/ml): 88%
- % micronuclei without a centromere (human lymphocytes [8]; 9.0 μg/ml): 12%
- % micronuclei with a centromere (human lymphocytes [8]; 16 μg/ml): 83%
- % micronuclei without a centromere (human lymphocytes [8]; 16 μg/ml): 17%
- % micronuclei with a centromere (human lymphocytes [8]; 25 μg/ml): 86%
- % micronuclei without a centromere (human lymphocytes [8]; 25 μg/ml): 14%
- %C− micronuclei (human lymphocytes [8]; male, human): 30%
- Mutation test result (in words) (Saccharomyces cerevisiae): negative
- Ames bacterial mutation test result (in words) (bacteria (Ames test)): negative
- Revised RfD ([9]; Han Wistar [Cr1 WI(Han)]): 140.62 mg/subject/day
- % Micronucleated PCE ([9]; 65 mg/kg): 1.35* %
- % PCE ([9]; 65 mg/kg): 31.74%
- % Micronucleated PCE ([9]; 130 mg/kg): 2.31* %
- % PCE ([9]; 130 mg/kg): 33.00%
- % Micronucleated PCE ([9]; 400 mg/kg): 1.94* %
- Mean plasma concentration [10]: 610 ng/mL
- Bone marrow micronucleus test result (in words) (mouse bone marrow): negative
- Plasma levels of flubendazole [11]: 81 ng/mL
- Plasma Cmax [12]: < 1 ng/mL
